How the values were obtained:
[1] = system: isolated heart of guinea pig; test: Coronary vasodilating activity: Langendorff's method, coronary blood flow of isolated guinea pig heart (Experiment 4); conditions: for Coronary vasodilating activity (increase in coronary blood flow): isolated guinea pig heart, Langendorff, 30° C.
Protocol: Langendorff's method was used for testing the effect on the coronary blood flow of the isolated heart of guinea pig (about 280 g). The isolated heart was perfused with Locke-Ringer solution containing 2% of defibrinated rabbit blood, which had been saturated with a mixed gas of 95% O2 and 5% CO2 (30° C.). Perfusion pressure was kept at 40 cm H2 O. A solution of a test compound in an aqueous 5% glucose solution was injected into the perfusing solution at a volume of 0.1 ml per heart. The overflow of the perfusate was measured by means of a drop counter.
The coronary vasodilating activity of the test compound was expressed as "±" if the increase in coronary blood flow is less than 0.5 ml/minute at a dose of 100 μg/heart; "+" if the increase is not less than 0.5 ml/minute at a dose of 100 μg/heart; "++" if the increase is not less than 0.5 ml/minute at a dose of 30 μg/heart; and "+++" if the increase is not less than 0.5 ml/minute at a dose of not more than 10 μg/heart.

[2] = system: platelet aggregation; test: Platelet aggregation-inhibiting activity, collagen-induced aggregation in rat platelet-rich plasma, Born's method (Experiment 5); type: cell-based, male Sprague-Dawley rats; set-up: key: -: less than 10% inhibition of platelet aggregation; +: not less than 10% inhibition of platelet aggregation but said percentage inhibition was lower than that of acetylsalicylic acid (100 μg/ml); ++: platelet aggregation-inhibiting activity at least as strong as that of acetylsalicylic acid (100 μg/ml); conditions: final concentration 100 μg/ml, rat PRP, 37° C.
Source text: Blood was collected from the abdominal aorta of male Sprague-Dawley rats which were anesthetized with ether. Nine volumes of rat blood were mixed with one volume of an aqueous trisodium citrate solution, and the mixture was centrifuged to give platelet-rich plasma ("PRP") as the supernatant solution. The bottom layer was further centrifuged to give platelet-poor plasma ("PPP") as the supernatant solution. Platelet counts were adjusted to 0.8-1×10^6 /mm^3 for PRP by dilution with PPP. After a mixture of 200 μl of the diluted PRP and 25 μl of a test compound solution (final concentration: 100 μg/ml) was stirred for 2 minutes at 37° C., 25 μl of a collagen solution [Biochim. Biophys. Acta, 186, page 254(1969)] were added thereto. The degree of platelet aggregation was estimated by Born's method [Nature, 194, page 927(1962)] and the percentage inhibition of platelet aggregation was calculated therefrom.

[3] = system: vertebral artery; test: Cerebral vasodilating activity: vertebral artery blood flow in anesthetized dogs, intraarterial injection, potency ratio to papaverine (Experiment 2); type: in vivo; conditions: for Cerebral vasodilating activity (potency ratio): injected into vertebral artery, potency ratio to papaverine from dose-response curves; for increase in vertebral artery blood flow (in words) / cerebral vasodilating activity, times stronger than the 7-chloro derivative: intraarterial; for cerebral vasodilating activity, times stronger than the 7-chloro derivative: versus (+)-cis-...-7-chloro-... hydrochloride (so in the source)
Protocol: On the other hand, when the coronary vasodilating activity is estimated by the Langendorff method using isolated hearts of guinea pigs, said activity of (+)-cis-2-(4-methoxyphenyl)-3-acetoxy-5-[2-(dimethylamino)ethyl]-8-chloro- 2,3-dihydro-1,5-benzothiazepin-4(5H)-one hydrochloride is about 10 times stronger than that of papaverine.
Male dogs weighing 10 to 20 kg were anesthetized with sodium pentobarbital (30 mg/kg, intravenous injection). The blood flow in vertebral artery was measured continuously by means of an electromagnetic flowmeter under artificial respiration. A test compound dissolved in an aqueous 5% glucose solution was injected into vertebral artery. The cerebral vasodilating activity of the test compound was estimated in terms of the potency ratio of said compound to papaverine, which was calculated from the dose-response curves thereof.

[4] = system: vertebral artery; test: Cerebral vasodilating activity: increase in vertebral artery blood flow in anesthetized dogs after femoral vein injection (Experiment 3); type: in vivo; conditions: 200 μg/kg into femoral vein
Protocol: Male dogs weighing about 20-24 kg (one group: 2 dogs) were anesthetized with sodium pentobarbital (35 mg/kg, intravenous injection). The blood flow in vertebral artery was measured by means of an electromagnetic flowmeter under artificial respiration. A test compound (i.e., (+)-cis-2-(4-methoxyphenyl)-3-acetoxy-5-[2-(dimethylamino)ethyl]-8-chloro- 2,3-dihydro-1,5-benzothiazepin-4(5H)-one hydrochloride) in a physiological saline solution was injected into the femoral vein at a dose of 200 μg/kg. The cerebral vasodilating activity of the test compound was estimated in terms of "increase (Δml/minute) in vertebral artery blood flow" which was calculated by subtracting "the blood flow measured immediately before injection of test compound" from "the blood flow measured at a period of time after injection of test compound".

[5] = Acute toxicity (LD50), oral administration to mice; conditions: mouse, in vivo
Protocol: For example, the acute toxicity (LD50) of (+)-cis-2-(4-methoxyphenyl)-3-acetoxy-5-[2-(dimethylamino)ethyl]-8-chloro- 2,3-dihydro-1,5-benzothiazepin-4(5H)-one hydrochloride when orally administered to mice is more than 1000 mg/kg.

[6] = system: spontaneously hypertensive rats (SHR); test: Hypotensive activity, oral administration to SHR, systolic blood pressure by tail plethysmography (Experiment 1); type: in vivo; conditions: 30 mg/kg oral
Protocol: A test compound (dose: 30 mg/kg) dissolved or suspended in water was administered orally to spontaneously hypertensive rats (SHR) (one group: 3 rats) fasted overnight. The systolic blood pressure of the rats was measured by the tail plethysmographic technique (The Journal of Laboratory and Clinical Medicine 78(1971), page 957). The hypotensive activity of the test compound was estimated at one or 4 hours after dosing and expressed as "-" if the decrease in blood pressure is less than 10 mm Hg; "+" if the decrease is not less than 10 mm Hg but less than 20 mm Hg; "++" if the decrease is not less than 20 mm Hg but less than 40 mm Hg; "+++" if the decrease is not less than 40 mm Hg but less than 60 mm Hg; or "++++" if the decrease is not less than 60 mm Hg.

SMILES: COc1ccc(Cc2nccc3cc(OC)c(OC)cc23)cc1OC [Papaverine, reference compound]
- Coronary vasodilating activity (increase in coronary blood flow) [1]: + (increase is not less than 0.5 ml/minute at a dose of 100 μg/heart)

SMILES: COc1ccc([C@@H]2Sc3cc(Cl)ccc3N(CCN(C)C)C(=O)[C@@H]2O)cc1.O=C(O)C(=O)O (single isomer, unassigned) [(+)-cis-2-(4-methoxyphenyl)-3-hydroxy-5-[2-(dimethylamino)ethyl]-8-chloro-2,3-dihydro-1,5-benzothiazepin-4(5H)-one oxalate]
- Platelet aggregation-inhibiting activity [2]: ++

SMILES: CCC(=O)O[C@H]1C(=O)N(CCN(C)C)c2ccc(Cl)cc2S[C@H]1c1ccc(OC)cc1.O=C(O)C(=O)O (single isomer, unassigned) [(+)-cis-2-(4-methoxyphenyl)-3-propionyloxy-5-[2-(dimethylamino)ethyl]-8-chloro-2,3-dihydro-1,5-benzothiazepin-4(5H)-one oxalate]
- Cerebral vasodilating activity (potency ratio) [3]: 23.7
- increase in vertebral artery blood flow (in words) [3]: remarkable increase
- cerebral vasodilating activity, times stronger than the 7-chloro derivative [3]: about 5 times
- Platelet aggregation-inhibiting activity [2]: ++

SMILES: COc1ccc([C@@H]2Sc3cc(Cl)ccc3N(CCN(C)C)C(=O)[C@@H]2OC(C)=O)cc1.Cl (single isomer, unassigned) [(+)-cis-2-(4-methoxyphenyl)-3-acetoxy-5-[2-(dimethylamino)ethyl]-8-chloro-2,3-dihydro-1,5-benzothiazepin-4(5H)-one hydrochloride]
- Cerebral vasodilating activity (potency ratio) [3]: 25
- increase in vertebral artery blood flow (in words) [3]: remarkable increase
- cerebral vasodilating activity, times stronger than the 7-chloro derivative [3]: about 5 times
- Increase in vertebral artery blood flow, 1 minute ([4]; 1 minute after injection): 58 Δml/minute
- Increase in vertebral artery blood flow, 3 minutes ([4]; 3 minutes after injection): 53 Δml/minute
- Increase in vertebral artery blood flow, 5 minutes ([4]; 5 minutes after injection): 52 Δml/minute
- Increase in vertebral artery blood flow, 10 minutes ([4]; 10 minutes after injection): 38 Δml/minute
- Increase in vertebral artery blood flow, 20 minutes ([4]; 20 minutes after injection): 21 Δml/minute
- Increase in vertebral artery blood flow, 30 minutes ([4]; 30 minutes after injection): 14 Δml/minute
- coronary vasodilating activity, times stronger than papaverine ([1]; Langendorff method, isolated hearts of guinea pigs, versus papaverine): about 10 times
- Coronary vasodilating activity (increase in coronary blood flow) [1]: +++ (increase is not less than 0.5 ml/minute at a dose of not more than 10 μg/heart)
- LD50 [5]: > 1000 mg/kg

SMILES: CCCN(C)CCN1C(=O)[C@H](OC(C)=O)[C@H](c2ccc(OC)cc2)Sc2cc(Cl)ccc21.O=C(O)C(=O)O (racemic) [(±)-cis-2-(4-methoxyphenyl)-3-acetoxy-5-[2-(N-methyl-N-n-propylamino)ethyl]-8-chloro-2,3-dihydro-1,5-benzothiazepin-4(5H)-one oxalate]
- Coronary vasodilating activity (increase in coronary blood flow) [1]: +++ (increase is not less than 0.5 ml/minute at a dose of not more than 10 μg/heart)
- Platelet aggregation-inhibiting activity [2]: ++

SMILES: CCN(CC)CCN1C(=O)[C@H](OC(C)=O)[C@H](c2ccc(OC)cc2)Sc2cc(Cl)ccc21.O=C(O)C(=O)O (single isomer, unassigned) [(+)-cis-2-(4-methoxyphenyl)-3-acetoxy-5-[2-(diethylamino)ethyl]-8-chloro-2,3-dihydro-1,5-benzothiazepin-4(5H)-one oxalate]
- Platelet aggregation-inhibiting activity [2]: ++

SMILES: COc1ccc([C@@H]2Sc3cc(Cl)ccc3N(CCN(C)C)C(=O)[C@@H]2OC(C)=O)cc1.Cl (racemic) [(±)-cis-2-(4-methoxyphenyl)-3-acetoxy-5-[2-(dimethylamino)ethyl]-8-chloro-2,3-dihydro-1,5-benzothiazepin-4(5H)-one hydrochloride]
- Hypotensive activity (decrease in blood pressure), 1 hr after dosing [6]: ++ (decrease is not less than 20 mm Hg but less than 40 mm Hg)
- Hypotensive activity (decrease in blood pressure), 4 hrs after dosing [6]: ++++ (decrease is not less than 60 mm Hg)
- Coronary vasodilating activity (increase in coronary blood flow) [1]: +++ (increase is not less than 0.5 ml/minute at a dose of not more than 10 μg/heart)
- Platelet aggregation-inhibiting activity [2]: ++

SMILES: COc1ccc([C@@H]2Sc3ccc(Cl)cc3N(CCN(C)C)C(=O)[C@@H]2OC(C)=O)cc1.Cl (racemic) [(±)-cis-2-(4-methoxyphenyl)-3-acetoxy-5-[2-(dimethylamino)ethyl]-7-chloro-2,3-dihydro-1,5-benzothiazepin-4(5H)-one hydrochloride, reference compound]
- Hypotensive activity (decrease in blood pressure), 1 hr after dosing [6]: - (decrease in blood pressure is less than 10 mm Hg)
- Hypotensive activity (decrease in blood pressure), 4 hrs after dosing [6]: ++ (decrease is not less than 20 mm Hg but less than 40 mm Hg)
- Cerebral vasodilating activity (potency ratio) [3]: 5

SMILES: COc1ccc([C@@H]2Sc3cc(Cl)ccc3N(CCN(C)C)C(=O)[C@@H]2OC(C)=O)cc1.O=C(O)/C=C\C(=O)O (single isomer, unassigned) [(+)-cis-2-(4-methoxyphenyl)-3-acetoxy-5-[2-(dimethylamino)ethyl]-8-chloro-2,3-dihydro-1,5-benzothiazepin-4(5H)-one maleate]
- Hypotensive activity (decrease in blood pressure), 1 hr after dosing [6]: ++++ (decrease is not less than 60 mm Hg)
- decrease in blood pressure, 4 hours after administration ([6]; 4 hours): ~68 mm Hg
- Hypotensive activity (decrease in blood pressure), 4 hrs after dosing [6]: ++++ (decrease is not less than 60 mm Hg)
- decrease in blood pressure, one hour after administration ([6]; one hour): about 86 mm Hg

SMILES: CCN(C)CCN1C(=O)[C@H](OC(C)=O)[C@H](c2ccc(OC)cc2)Sc2cc(Cl)ccc21.Cl (racemic) [(±)-cis-2-(4-methoxyphenyl)-3-acetoxy-5-[2-(N-methyl-N-ethylamino)ethyl]-8-chloro-2,3-dihydro-1,5-benzothiazepin-4(5H)-one hydrochloride]
- Hypotensive activity (decrease in blood pressure), 1 hr after dosing [6]: +++ (decrease is not less than 40 mm Hg but less than 60 mm Hg)
- Hypotensive activity (decrease in blood pressure), 4 hrs after dosing [6]: +++ (decrease is not less than 40 mm Hg but less than 60 mm Hg)
